Key:
[1] = human
[2] = human, serum
[3] = human, serum, 4383 h
[4] = human; remark: listed apart in the source
[5] = human; remark: listed apart in the source
[6] = human; remark: listed apart in the source
[7] = Highest frequency of acute liver toxicity observed during clinical trials, expressed as a percentage. [column '% AIGUE' in source]; details: human
[8] = human; remark: listed apart in the source
[9] = human; remark: listed apart in the source
[10] = human, serum; remark: listed apart in the source
[11] = human; remark: listed apart in the source
[12] = human; remark: listed apart in the source
[13] = human; remark: listed apart in the source
[14] = Highest frequency of moderate liver toxicity observed during clinical trials, expressed as a percentage. [column '% BIOL' in source]; details: human
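Wherever Hepatotoxicity (association with vascular disease) is given: count of indexed literature references reporting vascular liver injury in humans, e.g. peliosis hepatitis, hepatic veno-occlusive disease or Budd-Chiari syndrome.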
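Wherever Hepatotoxicity (benign tumour) is given: value is a count of indexed literature references citing a benign tumour confirmed by histopathology.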
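Wherever Hepatotoxicity (choleostasis) is given: human cholestatic liver injury, shown by histopathology or by peak ALT or AST elevation over alkaline phosphatase ratio below 2, value counts indexed literature reports.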
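Wherever Hepatotoxicity (chronic liver disease) is given: chronic liver injury confirmed by histopathology or persistently raised serum aminotransferase activity beyond 6 months, value given as the count of indexed literature references.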
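Wherever Hepatotoxicity (cirrhosis) is given: value is a count of indexed literature references reporting cirrhosis confirmed by histopathology.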
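Wherever Hepatotoxicity (cytolytic) is given: human cytolytic liver injury, shown by histopathology or by a ratio above 5 of peak ALT or AST elevation to alkaline phosphatase elevation, value counts indexed references.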
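Wherever Hepatotoxicity (granulomatous hepatitis) is given: value is a count of indexed literature references reporting granulomatous liver disease confirmed by histopathology.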
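Wherever Hepatotoxicity (malignant tumour) is given: malignant tumour confirmed by histopathology, value gives the count of indexed literature references reporting it.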
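Wherever Hepatotoxicity (severe hepatitis) is given: human clinical data: severe hepatitis, meaning potentially life-threatening liver failure or clinically observed cases, the value counts how many indexed literature references report it.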
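Wherever Hepatotoxicity (steatosis) is given: steatosis confirmed by histopathology, value is the count of indexed references.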

| SMILES | Hepatotoxicity (granulomatous hepatitis) [1] | Hepatotoxicity (moderate) [2] | Hepatotoxicity (chronic liver disease) [3] | Hepatotoxicity (cirrhosis) [4] | Hepatotoxicity (severe hepatitis) [5] | Hepatotoxicity (steatosis) [6] | Hepatotoxicity (acute) [7] | Hepatotoxicity (association with vascular disease) [8] | Hepatotoxicity (choleostasis) [9] | Hepatotoxicity (acute) [10] | Hepatotoxicity (cytolytic) [11] | Hepatotoxicity (benign tumour) [12] | Hepatotoxicity (malignant tumour) [13] | Hepatotoxicity (moderate) [14] | Hepatotoxicity (granulomatous hepatitis) ([1]; Liver) | Hepatotoxicity (severe hepatitis) ([5]; Liver) | Hepatotoxicity (acute) ([7]; Liver) | Hepatotoxicity (choleostasis) ([9]; Liver) | Hepatotoxicity (cytolytic) ([11]; Liver) | Hepatotoxicity (moderate) ([14]; Liver) |
| --- | --- | --- | --- | --- | --- | --- | --- | --- | --- | --- | --- | --- | --- | --- | --- | --- | --- | --- | --- | --- |
| CC(C(=O)O)c1ccc(CC2CCCC2=O)cc1 (stereo not drawn) [LOXOPROFEN] | 0 | 0 | 0 | 0 | 1 | 0 | 0% | 0 | 0 | 1 | 0 | 0 | 0 | 0% |  |  |  |  |  |  |
| CC(Cc1ccccc1)(NC(=O)CN)c1ccccc1 (stereo not drawn) [REMACEMIDE] | 0 | 3 | 0 | 0 | 0 | 0 | 0% | 0 | 0 | 0 | 0 | 0 | 0 | 0.9% |  |  |  |  |  |  |
| Cc1cnc(NCCCN(C)C)c2c1[nH]c1ccc3cc(O)ccc3c12 [INTOPLICINE] | 0 | 0 | 0 | 0 | 0 | 0 | 3.8% | 0 | 0 | 1 | 0 | 0 | 0 | 0% |  |  |  |  |  |  |
| COC(=O)C1=C(C)NC(C)=C(C(=O)OC(C)C)C1c1cccc2nonc12 (stereo not drawn) [ISRADIPINE] | 0 | 6 | 0 | 0 | 0 | 0 | 0% | 0 | 0 | 0 | 0 | 0 | 0 | 8.3% |  |  |  |  |  |  |
| N[C@H](Cc1cc(I)c(Oc2cc(I)c(O)c(I)c2)c(I)c1)C(=O)O [DEXTROTHYROXINE] | 0 | 1 | 0 | 0 | 0 | 0 | 0% | 0 | 0 | 0 | 0 | 0 | 0 | 40.2% |  |  |  |  |  |  |
| NC(=O)N1C(=O)/C(=C(\O)c2cccs2)c2cc(Cl)ccc21 [TENIDAP] | 0 | 3 | 0 | 0 | 0 | 0 | 0.8% | 0 | 1 | 2 | 1 | 0 | 0 | 18.8% |  |  |  |  |  |  |
| CC[C@H]1OC(=O)[C@H](C)C(=O)[C@H](C)[C@@H](O[C@@H]2O[C@H](C)C[C@H](N(C)C)[C@H]2O)[C@](C)(OC)C[C@@H](C)C(=O)[C@H](C)[C@H]2N(CCCCn3cnc(-c4cccnc4)c3)C(=O)O[C@]12C [TELITHROMYCIN] |  | 4 | 0 | 0 |  | 0 |  | 0 |  | 0 |  | 0 | 0 |  | 0 | 0 | 0% | 0 | 0 | 1.8% |
| CO/N=C(\C(=O)N[C@@H]1C(=O)N2C(C(=O)[O-])=C(C[N+]3(C)CCCC3)CS[C@H]12)c1csc(N)n1 | 0 | 52 | 0 | 0 |  | 0 |  | 0 | 0 | 0 | 0 | 0 | 0 |  |  | 0 | 0% |  |  | 37.5% |
| Cc1ncc(-c2csc(N=C(N)N)n2)[nH]1 [ZALTIDINE] | 0 | 1 | 0 | 0 | 0 | 0 | 8% | 0 | 0 | 1 | 1 | 0 | 0 | 94% |  |  |  |  |  |  |
| Oc1ccc2[nH]cc(CCCCN3CC=C(c4ccccc4)CC3)c2c1 [ROXINDOLE] | 0 | 1 | 0 | 0 | 0 | 0 | 0% | 0 | 0 | 0 | 0 | 0 | 0 | 10% |  |  |  |  |  |  |
| O=C(CCCN1CCC(C(=O)c2ccc(F)cc2)CC1)c1ccc(F)cc1 [LENPERONE] | 0 | 2 | 0 | 0 | 0 | 0 | 0% | 0 | 0 | 0 | 0 | 0 | 0 | 0% |  |  |  |  |  |  |
| CCC1=C(C[C@H]2NCCc3cc(OC)c(OC)cc32)C[C@H]2c3cc(OC)c(OC)cc3CCN2C1 [DEHYDROEMETINE] | 0 | 1 | 0 | 0 | 0 | 0 | 0% | 0 | 0 | 0 | 0 | 0 | 0 | 0% |  |  |  |  |  |  |

From ChEMBL document CHEMBL3137667, “[Drug-induced liver injury; fourteenth updated edition of the bibliographic database of liver injuries and related drugs]” (Gastroenterol Clin Biol, 2004)
